What all share (experiment): Kinase panel
Common to all, as to format: biochemical

One assay deals with T1, Axl(h) (Homo sapiens, UniProt P30530).
T1 construct: purchased Millipore KinaseProfiler
T1 sequence (P30530 26-894): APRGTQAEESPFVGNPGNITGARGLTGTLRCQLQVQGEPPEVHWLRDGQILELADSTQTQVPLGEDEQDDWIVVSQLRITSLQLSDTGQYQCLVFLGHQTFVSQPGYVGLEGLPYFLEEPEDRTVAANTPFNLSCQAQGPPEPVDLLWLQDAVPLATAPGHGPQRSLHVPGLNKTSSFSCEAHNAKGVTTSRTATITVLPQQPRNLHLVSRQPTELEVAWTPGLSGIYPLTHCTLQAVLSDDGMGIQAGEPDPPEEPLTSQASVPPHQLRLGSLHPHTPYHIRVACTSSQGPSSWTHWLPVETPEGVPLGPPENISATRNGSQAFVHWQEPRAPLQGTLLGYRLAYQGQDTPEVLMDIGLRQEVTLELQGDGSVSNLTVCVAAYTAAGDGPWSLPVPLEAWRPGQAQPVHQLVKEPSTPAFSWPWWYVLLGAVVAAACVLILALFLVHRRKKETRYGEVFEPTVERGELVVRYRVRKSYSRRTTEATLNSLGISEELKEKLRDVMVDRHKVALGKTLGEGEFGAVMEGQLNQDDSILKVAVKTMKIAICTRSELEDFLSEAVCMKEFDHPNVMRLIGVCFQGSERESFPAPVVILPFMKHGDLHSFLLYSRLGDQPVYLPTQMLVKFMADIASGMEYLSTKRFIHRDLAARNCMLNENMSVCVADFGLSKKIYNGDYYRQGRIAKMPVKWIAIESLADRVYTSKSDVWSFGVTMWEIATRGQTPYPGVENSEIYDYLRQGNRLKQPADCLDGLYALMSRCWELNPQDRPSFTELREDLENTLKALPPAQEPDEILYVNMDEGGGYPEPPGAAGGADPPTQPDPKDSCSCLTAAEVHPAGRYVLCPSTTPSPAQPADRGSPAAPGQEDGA

Another assay has as its target T2, EphA1(h) (Homo sapiens, UniProt P21709).
T2 construct: purchased Millipore KinaseProfiler
T2 sequence (P21709 26-976): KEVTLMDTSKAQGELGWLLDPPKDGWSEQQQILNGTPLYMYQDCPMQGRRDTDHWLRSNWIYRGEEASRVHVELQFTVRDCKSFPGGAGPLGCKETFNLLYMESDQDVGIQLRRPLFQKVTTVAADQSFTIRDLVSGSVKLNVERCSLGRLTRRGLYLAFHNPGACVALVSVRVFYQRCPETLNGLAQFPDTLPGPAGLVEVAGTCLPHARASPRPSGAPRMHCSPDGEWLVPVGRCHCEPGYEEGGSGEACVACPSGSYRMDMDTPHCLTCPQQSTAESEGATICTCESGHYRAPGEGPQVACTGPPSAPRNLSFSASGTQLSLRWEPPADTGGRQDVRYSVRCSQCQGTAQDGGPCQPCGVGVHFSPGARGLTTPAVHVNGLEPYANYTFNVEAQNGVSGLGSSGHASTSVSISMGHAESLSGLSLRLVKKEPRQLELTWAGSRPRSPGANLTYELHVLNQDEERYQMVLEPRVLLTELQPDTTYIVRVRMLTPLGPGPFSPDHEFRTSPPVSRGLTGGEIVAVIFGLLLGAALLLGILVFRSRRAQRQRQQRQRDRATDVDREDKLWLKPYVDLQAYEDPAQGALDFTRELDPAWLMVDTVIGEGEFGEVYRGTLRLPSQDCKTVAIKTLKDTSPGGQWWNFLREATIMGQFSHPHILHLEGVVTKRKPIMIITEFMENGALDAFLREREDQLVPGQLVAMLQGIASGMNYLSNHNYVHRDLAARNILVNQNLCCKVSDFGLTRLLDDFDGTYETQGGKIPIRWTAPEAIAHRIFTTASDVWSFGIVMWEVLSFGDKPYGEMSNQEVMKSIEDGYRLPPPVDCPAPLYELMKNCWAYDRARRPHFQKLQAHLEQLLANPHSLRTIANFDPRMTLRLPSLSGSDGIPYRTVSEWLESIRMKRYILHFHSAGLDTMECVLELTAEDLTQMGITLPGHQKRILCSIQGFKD

A further assay deals with T3, Fes(h) (Homo sapiens, UniProt P07332).
T3 construct: purchased Millipore KinaseProfiler

The target in another assay is T4, EGFR(L861Q)(h) (Homo sapiens, UniProt P00533, L861Q).
T4 construct: purchased Millipore KinaseProfiler

Another assay addresses T5, MRCKβ(h) (Homo sapiens, UniProt Q9Y5S2).
T5 construct: purchased Millipore KinaseProfiler

The next assay addresses T6, PKD2(h) (Homo sapiens, UniProt Q9BZL6).
T6 construct: purchased Millipore KinaseProfiler
T6 sequence (Q9BZL6 1-878): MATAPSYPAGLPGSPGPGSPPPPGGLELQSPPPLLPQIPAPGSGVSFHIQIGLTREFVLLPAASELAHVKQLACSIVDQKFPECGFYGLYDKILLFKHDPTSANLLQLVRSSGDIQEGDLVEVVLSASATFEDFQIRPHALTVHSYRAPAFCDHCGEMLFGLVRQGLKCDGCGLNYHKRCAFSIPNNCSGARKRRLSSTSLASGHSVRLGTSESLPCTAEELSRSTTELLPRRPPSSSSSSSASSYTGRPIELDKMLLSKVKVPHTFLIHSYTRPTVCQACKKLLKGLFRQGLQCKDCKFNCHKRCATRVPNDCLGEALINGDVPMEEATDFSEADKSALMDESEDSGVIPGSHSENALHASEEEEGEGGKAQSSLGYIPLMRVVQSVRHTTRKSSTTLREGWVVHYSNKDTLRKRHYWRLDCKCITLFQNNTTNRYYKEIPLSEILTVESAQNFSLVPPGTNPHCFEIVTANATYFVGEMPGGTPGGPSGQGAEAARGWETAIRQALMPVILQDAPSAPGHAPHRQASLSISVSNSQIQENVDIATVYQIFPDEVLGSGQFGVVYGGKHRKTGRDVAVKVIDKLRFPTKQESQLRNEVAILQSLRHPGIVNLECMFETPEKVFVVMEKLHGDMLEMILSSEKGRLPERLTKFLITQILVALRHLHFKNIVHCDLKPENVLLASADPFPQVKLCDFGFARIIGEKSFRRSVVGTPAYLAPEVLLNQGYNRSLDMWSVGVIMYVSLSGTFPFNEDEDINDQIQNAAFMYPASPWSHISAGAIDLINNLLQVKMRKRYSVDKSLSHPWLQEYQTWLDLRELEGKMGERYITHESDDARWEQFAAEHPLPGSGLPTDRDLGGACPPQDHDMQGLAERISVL

Where two headings read alike, the source gives them in different places.

T5 sequence (Q9Y5S2 whole entry): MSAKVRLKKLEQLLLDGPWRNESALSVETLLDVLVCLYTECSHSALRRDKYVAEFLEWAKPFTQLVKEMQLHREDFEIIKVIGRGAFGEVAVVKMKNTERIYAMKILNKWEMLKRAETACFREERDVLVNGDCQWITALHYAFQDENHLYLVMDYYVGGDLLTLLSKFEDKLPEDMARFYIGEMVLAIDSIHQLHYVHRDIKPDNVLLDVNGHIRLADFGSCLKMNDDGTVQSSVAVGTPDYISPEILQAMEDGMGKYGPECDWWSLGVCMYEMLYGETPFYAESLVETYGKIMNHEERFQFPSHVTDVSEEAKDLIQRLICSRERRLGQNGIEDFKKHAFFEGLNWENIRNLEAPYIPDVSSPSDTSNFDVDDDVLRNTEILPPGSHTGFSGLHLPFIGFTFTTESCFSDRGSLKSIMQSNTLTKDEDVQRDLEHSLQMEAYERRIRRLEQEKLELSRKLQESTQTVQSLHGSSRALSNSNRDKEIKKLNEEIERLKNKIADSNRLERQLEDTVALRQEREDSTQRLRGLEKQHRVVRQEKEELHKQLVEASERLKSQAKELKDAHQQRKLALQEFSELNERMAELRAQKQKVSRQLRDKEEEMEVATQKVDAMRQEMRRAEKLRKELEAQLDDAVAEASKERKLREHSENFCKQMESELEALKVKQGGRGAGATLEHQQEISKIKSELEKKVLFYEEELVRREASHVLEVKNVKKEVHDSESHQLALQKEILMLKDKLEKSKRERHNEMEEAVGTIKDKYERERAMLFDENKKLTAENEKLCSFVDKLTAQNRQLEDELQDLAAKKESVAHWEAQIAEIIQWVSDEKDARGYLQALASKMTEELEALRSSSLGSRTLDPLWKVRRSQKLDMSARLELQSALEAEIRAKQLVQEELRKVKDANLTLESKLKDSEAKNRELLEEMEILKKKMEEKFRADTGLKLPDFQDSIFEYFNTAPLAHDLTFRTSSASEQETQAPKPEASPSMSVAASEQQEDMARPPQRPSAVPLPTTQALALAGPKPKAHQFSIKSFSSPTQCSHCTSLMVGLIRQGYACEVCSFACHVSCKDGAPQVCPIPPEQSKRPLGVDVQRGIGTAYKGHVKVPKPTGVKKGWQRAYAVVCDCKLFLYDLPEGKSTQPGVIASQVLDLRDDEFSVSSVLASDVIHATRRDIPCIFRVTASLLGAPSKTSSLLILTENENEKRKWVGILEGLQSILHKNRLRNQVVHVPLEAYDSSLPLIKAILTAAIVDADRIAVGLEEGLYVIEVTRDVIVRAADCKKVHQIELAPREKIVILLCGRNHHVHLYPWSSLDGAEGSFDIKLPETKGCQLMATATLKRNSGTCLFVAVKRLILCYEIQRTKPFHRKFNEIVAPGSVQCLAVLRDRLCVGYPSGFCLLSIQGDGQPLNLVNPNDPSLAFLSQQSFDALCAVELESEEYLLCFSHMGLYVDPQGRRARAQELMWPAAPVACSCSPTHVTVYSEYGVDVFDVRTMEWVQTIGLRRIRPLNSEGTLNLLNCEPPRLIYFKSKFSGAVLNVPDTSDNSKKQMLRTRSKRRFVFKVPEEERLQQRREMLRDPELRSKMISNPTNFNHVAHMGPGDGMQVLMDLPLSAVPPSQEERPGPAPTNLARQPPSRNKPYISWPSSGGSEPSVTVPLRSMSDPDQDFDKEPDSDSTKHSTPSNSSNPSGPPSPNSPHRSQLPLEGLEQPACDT
T3 sequence (P07332 whole entry): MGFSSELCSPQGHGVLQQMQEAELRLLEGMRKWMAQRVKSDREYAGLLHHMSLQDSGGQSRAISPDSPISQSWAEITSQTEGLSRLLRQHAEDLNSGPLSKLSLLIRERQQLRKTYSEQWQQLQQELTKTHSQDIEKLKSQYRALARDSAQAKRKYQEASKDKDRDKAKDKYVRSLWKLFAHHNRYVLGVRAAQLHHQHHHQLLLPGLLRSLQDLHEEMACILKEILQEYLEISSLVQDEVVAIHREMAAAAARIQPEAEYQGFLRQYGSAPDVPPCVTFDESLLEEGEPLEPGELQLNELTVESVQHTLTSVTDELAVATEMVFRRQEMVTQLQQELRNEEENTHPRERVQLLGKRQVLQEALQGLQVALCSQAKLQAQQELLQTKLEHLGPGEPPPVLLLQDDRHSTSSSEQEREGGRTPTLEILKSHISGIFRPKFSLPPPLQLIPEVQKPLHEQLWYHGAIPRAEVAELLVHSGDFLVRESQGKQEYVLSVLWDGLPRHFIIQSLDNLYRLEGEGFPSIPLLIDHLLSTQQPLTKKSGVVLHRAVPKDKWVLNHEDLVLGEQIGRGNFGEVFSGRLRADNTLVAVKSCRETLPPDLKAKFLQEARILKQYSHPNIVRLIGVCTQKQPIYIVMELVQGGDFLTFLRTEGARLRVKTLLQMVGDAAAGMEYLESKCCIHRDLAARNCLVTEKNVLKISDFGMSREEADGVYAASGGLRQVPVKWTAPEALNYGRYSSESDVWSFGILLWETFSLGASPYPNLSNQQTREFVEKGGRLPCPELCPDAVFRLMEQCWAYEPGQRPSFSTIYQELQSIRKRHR
T4 sequence (P00533 25-1210 L861Q): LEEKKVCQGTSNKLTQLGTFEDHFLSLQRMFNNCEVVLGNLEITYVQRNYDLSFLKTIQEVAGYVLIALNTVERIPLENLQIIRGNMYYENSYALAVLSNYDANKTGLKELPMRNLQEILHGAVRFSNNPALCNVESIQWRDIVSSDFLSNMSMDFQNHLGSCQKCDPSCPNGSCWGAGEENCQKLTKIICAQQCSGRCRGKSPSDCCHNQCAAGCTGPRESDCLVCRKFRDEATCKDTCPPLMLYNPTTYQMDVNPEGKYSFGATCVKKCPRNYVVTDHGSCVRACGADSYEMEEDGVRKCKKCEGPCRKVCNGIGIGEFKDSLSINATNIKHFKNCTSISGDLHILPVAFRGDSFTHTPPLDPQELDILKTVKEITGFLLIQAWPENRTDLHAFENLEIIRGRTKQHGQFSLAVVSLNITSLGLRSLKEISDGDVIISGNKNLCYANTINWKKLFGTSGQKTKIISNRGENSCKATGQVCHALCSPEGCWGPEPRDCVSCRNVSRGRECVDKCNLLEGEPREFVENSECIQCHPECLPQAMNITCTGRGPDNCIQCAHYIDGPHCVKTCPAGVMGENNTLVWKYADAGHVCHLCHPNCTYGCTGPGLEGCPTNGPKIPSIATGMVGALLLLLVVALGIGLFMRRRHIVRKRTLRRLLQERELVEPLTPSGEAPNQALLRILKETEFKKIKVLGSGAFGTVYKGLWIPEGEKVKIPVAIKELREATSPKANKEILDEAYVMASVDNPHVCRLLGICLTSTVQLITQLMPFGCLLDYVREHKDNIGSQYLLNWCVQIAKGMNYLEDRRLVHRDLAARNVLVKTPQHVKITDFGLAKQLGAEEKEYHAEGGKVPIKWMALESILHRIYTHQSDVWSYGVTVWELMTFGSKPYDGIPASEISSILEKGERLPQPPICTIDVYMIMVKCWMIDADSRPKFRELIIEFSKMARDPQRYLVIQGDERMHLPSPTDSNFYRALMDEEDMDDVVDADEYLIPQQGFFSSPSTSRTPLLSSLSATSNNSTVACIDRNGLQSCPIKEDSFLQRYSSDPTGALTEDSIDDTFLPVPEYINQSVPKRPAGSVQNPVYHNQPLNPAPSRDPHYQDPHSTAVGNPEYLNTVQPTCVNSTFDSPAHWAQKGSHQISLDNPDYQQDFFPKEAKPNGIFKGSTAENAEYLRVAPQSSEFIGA

`Cn1ncc(Cl)c1-c1cc(C(=O)N[C@H](CN)Cc2ccc(F)c(F)c2)oc1Cl` [GSK2141795]: the inhibition at 0.5 µM is -2% at Axl(h) (0.5 µM, read-out: % Inhibition); 4% at EphA1(h) (0.5 µM, read-out: % Inhibition); 0% on Fes(h) (0.5 µM, read-out: % Inhibition); -13% at EGFR(L861Q)(h) (0.5 µM, read-out: % Inhibition); -8% at MRCKβ(h) (0.5 µM, read-out: % Inhibition); 17% at PKD2(h) (0.5 µM, read-out: % Inhibition). For the same compound, the inhibition at 10 µM at Axl(h) (10 µM, read-out: % Inhibition) was -6%; on EphA1(h) (10 µM, read-out: % Inhibition), 53%; at Fes(h) (10 µM, read-out: % Inhibition), 80%; at EGFR(L861Q)(h) (10 µM, read-out: % Inhibition) it was 21%; at MRCKβ(h) (10 µM, read-out: % Inhibition) it was 3%; at PKD2(h) (10 µM, read-out: % Inhibition), 66%.
Turning to `Cn1ncc(Cl)c1-c1cc(C(=O)N[C@H](CN)Cc2cccc(F)c2)sc1Cl` [GSK2110183], the inhibition at 0.5 µM against Axl(h) is 6%; on EphA1(h) it was -14%; against Fes(h), 9%; at EGFR(L861Q)(h), -4%; on MRCKβ(h), -4%; against PKD2(h), 11%. The inhibition at 10 µM against Axl(h) is 37%; on EphA1(h), -5%; at Fes(h), 48%; against EGFR(L861Q)(h), 21%; against MRCKβ(h), 11%; on PKD2(h), 56%.

For the origin of these results see PMC4076210, “Discovery of Novel AKT Inhibitors with Enhanced Anti-Tumor Effects in Combination with the MEK Inhibitor” (PLoS ONE, 2014).
